Like-named read-outs stand apart in the source and are kept apart here.
Key:
PHH = details: cited from earlier work
hLiMTs [1] = assay: Combined HCI (HCS) and cellular ATP 3D assay in hLiMTs; details: for AC50 / minimal effective concentration: Homo sapiens
hLiMTs [2] = details: cited from earlier work
HepaRG spheroids = assay: Combined HCI (HCS) and cellular ATP 3D assay in HepaRG spheroids; details: HepaRG; for AC50 / minimal effective concentration: Homo sapiens
[3] = cited from earlier work
HepG2 cells [4] = details: In vitro Assay; ref O'Brien 2006; cited from earlier work
[5] = cited from earlier work; remark: listed apart in the source
HepG2 cells [6] = details: In vitro Assay; ref Persson 2013; cited from earlier work
[7] = tested on: THLE or HepG2 cells, isolated mitochondria, BSEP; details: In vitro Assay; ref Aleo 2019; cited from earlier work
human hepatocytes = details: In vitro Assay; ref Xu 2008; cited from earlier work
[8] = tested on: primary human hepatocytes, NIH3T3 fibroblasts, BSEP, CYP3A4; details: In vitro Assay; ref Schadt 2015; cited from earlier work
[9] = tested on: isolated mouse liver mitochondria; details: In vitro Assay; ref Porceddu 2012; cited from earlier work
[10] = In vitro Assay, ref Proctor 2017

| SMILES | DILI +VE (5-8), DILI -VE (-4) ([3]; ref Chen 2016) | DILI severity category ([3]; ref Chen 2016) | Structural based (HCI) (HepG2 cells [4]) | In vivo DILI ([5]; ref O'Brien 2006) | In vivo DILI ([5]; ref Persson 2013) | In vivo DILI ([5]; ref Xu 2008) | Cluser analysis (HepG2 cells [6]) | Structural based (HCI) (HepG2 cells [6]) | Structural based (HCI) (human hepatocytes) | also measured |
| --- | --- | --- | --- | --- | --- | --- | --- | --- | --- | --- |
| NCCCC(O)(P(=O)(O)O)P(=O)(O)O [alendronate] |  |  |  |  |  |  |  |  |  | PHH/100uM, Proctor (2017) (PHH; 2D PHH, ATP, IC50 threshold 100 µM, ref Proctor et al. 2017): -VE; PHH ATP <100uM (PHH; [10]): -VE; AC50 (hLiMTs [1]; read-out: ATP endpoint AC50): 7.71 µM; minimal effective concentration (hLiMTs [1]; read-out: ATP endpoint MEC): 2.86 µM; AC50 (hLiMTs [1]; read-out: HCS endpoint AC50): 15.6 µM; minimal effective concentration (hLiMTs [1]; read-out: HCS endpoint MEC): 2.24 µM; hLiMTs <10 uM All (hLiMTs [1]; hLiMTs, all endpoints, cut-off <10 uM): +ve (<10 uM); hLiMTs ATP <100uM (hLiMTs [2]; [10]): -VE; hLiMTs/100uM, Proctor (2017) (hLiMTs [2]; hLiMTs, ATP, IC50 threshold 100 µM, ref Proctor et al. 2017): -VE; HepaRG <10 uM All (HepaRG spheroids; all endpoints, cut-off <10 uM): +ve (<10 uM); AC50 (HepaRG spheroids; read-out: ATP endpoint AC50): 0.822 µM; minimal effective concentration (HepaRG spheroids; read-out: ATP endpoint MEC): 0.291 µM; AC50 (HepaRG spheroids; read-out: HCS endpoint AC50): 3.13 µM; minimal effective concentration (HepaRG spheroids; read-out: HCS endpoint MEC): 0.58 µM |
| C[C@@](Cc1ccc(O)c(O)c1)(NN)C(=O)O [carbidopa] | -VE | Ambiguous DILI-concern | -VE | -VE | -VE | -VE | -VE | -VE | -VE | Partition Hybrid HRM Score [7]: -VE; Ro2 Hybrid HRM Score [7]: -VE |
| COc1cc(N)c(Cl)cc1C(=O)NC1CCN(CCCOc2ccc(F)cc2)CC1OC (centres unmarked) [cisapride] |  |  | +VE | -VE | -VE | -VE | -VE | -VE | -VE | In vivo DILI ([5]; […]): -VE |
| CCOC(=O)C(C)(C)Oc1ccc(Cl)cc1 [clofibrate] | +VE | vLess-DILI-Concern | +VE | +VE | +VE |  | -VE | -VE |  | In vivo DILI ([5]; […]): -VE; In vivo DILI ([5]; ref Aleo 2019): +VE; Partition Hybrid HRM Score [7]: +VE; Ro2 Hybrid HRM Score [7]: +VE |
| [H]/N=C(/N)c1ccc(NCc2nc3cc(C(=O)N(CCC(=O)O)c4ccccn4)ccc3n2C)cc1 [dabigatran] |  |  |  |  |  |  |  |  |  | PHH ATP <100uM (PHH; [10]): -VE; In vivo DILI ([5]; ref Proctor 2017): -VE; In vivo DILI ([5]; ref Schadt 2015): -VE; hLiMTs ATP <100uM (hLiMTs [2]; [10]): -VE; Cellular toxicity (3T3 cells) [8]: -VE; Combined Assay [8]: -VE; GSH adduct HML [8]: -VE; Hepatocyte cellular toxicity [8]: +VE; MitoTox 3T3 [8]: -VE; TDI CYP3A4 [8]: -VE; hBSEP inhibition [8]: +VE |
| O=C1Nc2ccc(Cl)cc2[C@@](C#CC2CC2)(C(F)(F)F)O1 [efavirenz] | +VE | vMost-DILI-Concern | +VE (lowest HCI endpoint IC50 (or in the absence of dose–response < 100 µM) < 30 × total human plasma exposure levels (Cmax.tot)) | +VE | +VE |  | +VE | +VE |  |  |
| CNC(=O)Oc1ccc2c(c1)[C@]1(C)CCN(C)[C@@H]1N2C [eserine] |  |  | +VE (lowest HCI endpoint IC50 (or in the absence of dose–response < 100 µM) < 30 × total human plasma exposure levels (Cmax.tot)) | -VE | -VE | -VE | -VE | -VE | -VE |  |
| CCN1C(=O)NC(c2ccccc2)C1=O (centres unmarked) [ethotion] |  |  |  |  |  |  |  |  |  | PHH ATP <100uM (PHH): -VE; hLiMTs ATP <100uM (hLiMTs [2]): -VE |
| CCOC(=O)C1=C(C)NC(C)=C(C(=O)OC)C1c1cccc(Cl)c1Cl (centres unmarked) [felodipine] |  |  |  |  |  |  |  |  |  | DILI +VE (5-8), DILI -VE (-4) ([3]; in vivo): +VE; DILI severity category ([3]; in vivo): vLess-DILI-Concern; PHH ATP <100uM (PHH): -VE; In vivo DILI ([5]; in vivo): -VE; hLiMTs ATP <100uM (hLiMTs [2]): -VE |
| CCC1=C(C)CN(C(=O)NCCc2ccc(S(=O)(=O)NC(=O)N[C@H]3CC[C@H](C)CC3)cc2)C1=O [glimepiride] | +VE | vLess-DILI-Concern | -VE | -VE | -VE | -VE | -VE | -VE | -VE | In vivo DILI ([5]; ref Aleo 2019): +VE; In vivo DILI ([5]; ref Porceddu 2012): +VE; Partition Hybrid HRM Score [7]: -VE; Ro2 Hybrid HRM Score [7]: -VE; in vitro data EC2<=1x Cmax [9]: -VE; in vitro data EC20<=2uM [9]: +VE |
| O=[N+]([O-])O[C@H]1CO[C@H]2[C@@H]1OC[C@H]2O[N+](=O)[O-] [isosorbide dinitrate] | -VE | vNo-DILI-Concern | +VE (lowest HCI endpoint IC50 (or in the absence of dose–response < 100 µM) < 30 × total human plasma exposure levels (Cmax.tot)) | -VE | -VE |  | -VE | -VE |  |  |

Source: paper PMC7395068, “The evolution of strategies to minimise the risk of human drug-induced liver injury (DILI) in drug discovery and development” (Archives of Toxicology, 2020)
